Data as given in US9938262B2, “Benzamides” (Merck Patent GmbH, priority 2011, dated 2018).

Biological target: T1, FSHR (Homo sapiens, UniProt P23945)
T1 construct: expressed in transfected cells; host or cells: CHO (Cho-FSHR-LUC-1-1-43)
Test: EC50 of cyclic AMP production in CHO FSHR cells + EC20 FSH (Assay A)
Type: cell-based
Details: Table 2; for EC50: CHO FSHR cells + EC20 FSH, read-out: Assay A EC50 of cyclic AMP production; for activation at 5 µM: 1 h, effect relative to maximum response of the FSH standard
Summary of the method: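 cAMP HTRF ratio (665/620 nm) read after 1 h, 37 °C exposure of CHO-FSHR cells to compound in presence of EC20 FSH ([…]) and IBMX 200 μM. Responses given relative to FSH standard maximum; EC50 derived.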

T1 sequence (P23945 18-695): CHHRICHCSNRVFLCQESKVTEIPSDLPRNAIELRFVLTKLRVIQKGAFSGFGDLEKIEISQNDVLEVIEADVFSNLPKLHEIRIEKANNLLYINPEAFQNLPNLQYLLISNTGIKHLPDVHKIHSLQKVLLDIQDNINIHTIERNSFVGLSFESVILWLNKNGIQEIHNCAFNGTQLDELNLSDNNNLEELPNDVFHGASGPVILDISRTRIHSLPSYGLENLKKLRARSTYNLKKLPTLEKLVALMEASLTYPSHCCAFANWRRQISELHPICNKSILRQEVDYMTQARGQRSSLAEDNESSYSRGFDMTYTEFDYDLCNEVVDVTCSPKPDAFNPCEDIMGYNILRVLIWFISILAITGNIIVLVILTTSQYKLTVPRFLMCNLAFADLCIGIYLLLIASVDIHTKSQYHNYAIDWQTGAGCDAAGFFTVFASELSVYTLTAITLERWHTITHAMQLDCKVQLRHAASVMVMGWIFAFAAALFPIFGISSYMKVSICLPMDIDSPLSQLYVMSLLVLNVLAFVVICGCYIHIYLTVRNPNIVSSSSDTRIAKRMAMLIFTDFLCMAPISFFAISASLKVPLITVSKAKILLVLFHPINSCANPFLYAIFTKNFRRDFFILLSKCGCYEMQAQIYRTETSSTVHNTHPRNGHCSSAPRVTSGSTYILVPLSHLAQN
T1 sequence (P01215 25-116 partner): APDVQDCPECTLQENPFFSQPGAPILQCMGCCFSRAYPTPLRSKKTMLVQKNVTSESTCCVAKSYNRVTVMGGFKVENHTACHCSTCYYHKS
T1 sequence (P01225 19-129 partner): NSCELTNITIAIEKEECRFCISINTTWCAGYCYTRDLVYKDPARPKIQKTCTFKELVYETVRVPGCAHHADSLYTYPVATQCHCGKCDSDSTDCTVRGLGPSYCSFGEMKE

Row | SMILES | EC50 [nM] | activation at 5 µM [%]
1 | Cc1ccccc1N1CCN(c2ccc(C(=O)Nc3cccc(N4CCCC4=O)c3)cc2NC(=O)c2coc(C3CC3)n2)CC1 [Compound 481] | 100 to 1000 | –
2 | Cn1ccnc1N1CCN(c2ccc(C(=O)NCCCN3CCCC3=O)cc2NC(=O)c2coc(C3CC3)n2)CC1 [Compound 483] | 1000 to 10000 | –
3 | Cc1ccccc1N1CCN(c2ccc(C(=O)NC(C)(C)c3cccc(CN(C)C)c3)cc2NC(=O)c2coc(C3CC3)n2)CC1 [Compound 486] | 1000 to 10000 | –
4 | Cc1ccccc1N1CCN(c2ccc(C(=O)NCCc3ccc(CNC(=O)OC(C)(C)C)cc3)cc2NC(=O)c2coc(C3CC3)n2)CC1 [Compound 489] | 1000 to 10000 | –
5 | Cc1ccccc1N1CCN(c2ccc(C(=O)NCCc3ccc(CN)cc3)cc2NC(=O)c2coc(C3CC3)n2)CC1 [Compound 499] | 100 to 1000 | –
6 | Cc1nc(CCCNC(=O)c2ccc(N3CCN(c4ccccc4C)CC3)c(NC(=O)c3coc(C4CC4)n3)c2)no1 [Compound 500] | 100 to 1000 | –
7 | O=C(NCCCN1CCCC1=O)c1ccc(N2CCN(c3nccs3)CC2)c(NC(=O)c2coc(C3CC3)n2)c1 [Compound 505] | 1000 to 10000 | –
8 | COc1cccc(N2CCN(c3ccc(C(=O)NCCCN4CCCC4=O)cc3NC(=O)c3coc(C4CC4)n3)CC2)n1 [Compound 507] | 100 to 1000 | –
9 | Cn1ccnc1N1CCN(c2ccc(C(=O)NCCCN3CCOC3=O)cc2NC(=O)c2coc(C3CC3)n2)CC1 [Compound 513] | 1000 to 10000 | –
10 | Cc1ccc(C(=O)Nc2cc(C(=O)NCCCN3CCOC3=O)ccc2N2CCN(c3nccn3C)CC2)o1 [Compound 514] | – | 48
11 | Cc1ccccc1N1CCN(c2ccc(C(=O)NCCCC(=O)NCCO)cc2NC(=O)c2coc(C3CC3)n2)CC1 [Compound 515] | < 100 | –
12 | CCc1ccccc1N1CCN(c2ccc(C(=O)NCCCN3CCCC3=O)cc2NC(=O)c2coc(C3CC3)n2)CC1 [Compound 516] | 100 to 1000 | –
13 | Cc1ccc(C)c(N2CCN(c3ccc(C(=O)NCCCN4CCCC4=O)cc3NC(=O)c3ccc(C)o3)CC2)c1 [Compound 519] | 100 to 1000 | –
14 | Cc1ccc(C(=O)Nc2cc(C(=O)NCCCN3CCCC3=O)ccc2N2CCN(c3cccc(C)c3C)CC2)o1 [Compound 521] | 100 to 1000 | –
15 | O=C(NCCCN1CCCC1=O)c1ccc(N2CCN(c3ccccc3C3CC3)CC2)c(NC(=O)c2coc(C3CC3)n2)c1 [Compound 524] | 100 to 1000 | –
16 | N#Cc1ccccc1N1CCN(c2ccc(C(=O)NCCCN3CCCC3=O)cc2NC(=O)c2coc(C3CC3)n2)CC1 [Compound 525] | 100 to 1000 | –
17 | COc1ccnc(N2CCN(c3ccc(C(=O)NCCCN4CCCC4=O)cc3NC(=O)c3coc(C4CC4)n3)CC2)c1 [Compound 530] | 1000 to 10000 | –
18 | NC(=O)c1cccnc1N1CCN(c2ccc(C(=O)NCCCN3CCCC3=O)cc2NC(=O)c2coc(C3CC3)n2)CC1 [Compound 532] | > 10000 | –
19 | Cc1cncc(N2CCN(c3ccc(C(=O)NCCCN4CCCC4=O)cc3NC(=O)c3coc(C4CC4)n3)CC2)n1 [Compound 533] | 1000 to 10000 | –
20 | Cc1ccccc1N1CCN(c2ccc(C(=O)NCC[C@H]3COC(C)(C)O3)cc2NC(=O)c2coc(C3CC3)n2)CC1 [Compound 535] | 100 to 1000 | –
21 | CCN(CC)Cc1cccc(CNC(=O)c2ccc(N3CCN(c4ccccc4C)CC3)c(NC(=O)c3coc(C4CC4)n3)c2)c1 [Compound 536] | 100 to 1000 | –
22 | Cc1ccccc1C1(O)CCN(c2ccc(C(=O)NCCCN3CCCC3=O)cc2NC(=O)c2coc(C3CC3)n2)CC1 [Compound 539] | 1000 to 10000 | –
23 | Cc1ccc(C(=O)Nc2cc(C(=O)NC(C)(C)c3cccc(CN(C)C)c3)ccc2N2CCN(c3ccccc3C)CC2)o1 [Compound 545] | 1000 to 10000 | –
24 | Cc1ccccc1N1CCN(c2ccc(C(=O)NCCc3cn(C)cn3)cc2N(C(=O)C(F)(F)F)C(=O)C(F)(F)F)CC1 [Compound 548] | 1000 to 10000 | –
25 | Cc1ccccc1N1CCN(c2ccc(C(=O)NC[C@@H]3OC(C)(C)O[C@H]3CN)cc2NC(=O)c2coc(C3CC3)n2)CC1 [Compound 549] | 100 to 1000 | –
26 | Cc1ccccc1N1CCN(c2ccc(C(=O)N[C@@H]3C[C@H](CO)[C@@H](O)[C@H]3O)cc2NC(=O)c2coc(C3CC3)n2)CC1 [Compound 551] | < 100 | –
27 | Cc1ccccc1N1CCN(c2ccc(C(=O)NC3CCCC(O)C3)cc2NC(=O)c2coc(C3CC3)n2)CC1 (centres unmarked) [Compound 552] | < 100 | –
28 | O=C(NCCCN1CCCC1=O)c1ccc(N2CCN(c3cccc4[nH]ccc34)CC2)c(NC(=O)c2coc(C3CC3)n2)c1 [Compound 553] | 100 to 1000 | –
29 | O=C(NCCCN1CCCC1=O)c1ccc(N2CCN(c3ncncn3)CC2)c(NC(=O)c2coc(C3CC3)n2)c1 [Compound 554] | – | 40
30 | O=C(NCCCN1CCCC1=O)c1ccc(N2CCN(c3cccnc3)CC2)c(NC(=O)c2coc(C3CC3)n2)c1 [Compound 555] | 1000 to 10000 | –

Continued, values first:

Row | EC50 [nM] | activation at 5 µM [%] | SMILES
31 | < 100 | – | CCN(C)Cc1cccc(CNC(=O)c2ccc(N3CCN(c4ccccc4C)CC3)c(NC(=O)c3ccco3)c2)c1 [Compound 478]
32 | 100 to 1000 | – | Cc1ccccc1N1CCN(c2ccc(C(=O)N[C@@H]3CCCC[C@@H](O)[C@H]3O)cc2NC(=O)c2coc(C3CC3)n2)CC1 [Compound 479]
33 | < 100 | – | Cc1ccccc1N1CCN(c2ccc(C(=O)N[C@@H]3CCC[C@@H](O)[C@H]3O)cc2NC(=O)c2coc(C3CC3)n2)CC1 [Compound 480]
34 | 1000 to 10000 | – | Cc1ccccc1N1CCN(c2ccc(C(=O)Nc3cccc(N4CCCC4=O)c3)cc2NC(=O)c2ccco2)CC1 [Compound 482]
35 | 100 to 1000 | – | COCc1cccc(CNC(=O)c2ccc(N3CCN(c4ccccc4C)CC3)c(NC(=O)c3ccco3)c2)c1 [Compound 484]
36 | 100 to 1000 | – | Cc1ccccc1N1CCN(c2ccc(C(=O)NCc3cccc(C(=O)N(C)C)c3)cc2NC(=O)c2ccco2)CC1 [Compound 485]
37 | 1000 to 10000 | – | Cc1ccccc1N1CCN(c2ccc(C(=O)NC(C)(C)c3cccc(CN(C)C)c3)cc2NC(=O)c2ccco2)CC1 [Compound 487]
38 | < 100 | – | CCCNC(=O)NCCCNC(=O)c1ccc(N2CCN(c3ccccc3C)CC2)c(NC(=O)c2ccco2)c1 [Compound 490]
39 | 100 to 1000 | – | CCCCNC(=O)NCCCNC(=O)c1ccc(N2CCN(c3ccccc3C)CC2)c(NC(=O)c2ccco2)c1 [Compound 491]
40 | 100 to 1000 | – | CCNC(=O)NCCCNC(=O)c1ccc(N2CCN(c3ccccc3C)CC2)c(NC(=O)c2ccco2)c1 [Compound 492]
41 | 100 to 1000 | – | Cc1ccccc1N1CCN(c2ccc(C(=O)NCCCNC(=O)NC(C)(C)C)cc2NC(=O)c2ccco2)CC1 [Compound 493]
42 | 100 to 1000 | – | Cc1ccccc1N1CCN(c2ccc(C(=O)NCCCNC(=O)NC3CCCC3)cc2NC(=O)c2ccco2)CC1 [Compound 494]
43 | 100 to 1000 | – | Cc1ccccc1N1CCN(c2ccc(C(=O)NCCCNC(=O)NC(C)C)cc2NC(=O)c2ccco2)CC1 [Compound 495]
44 | 100 to 1000 | – | Cc1ccccc1N1CCN(c2ccc(C(=O)NCCCNC(=O)NC3CCCCC3)cc2NC(=O)c2ccco2)CC1 [Compound 496]
45 | 1000 to 10000 | – | Cc1ccccc1N1CCN(c2ccc(C(=O)NCCCNC(=O)NCC3CCCCC3)cc2NC(=O)c2ccco2)CC1 [Compound 497]
46 | 100 to 1000 | – | Cc1ccccc1N1CCN(c2ccc(C(=O)NCC(O)CN3CCCC3)cc2NC(=O)c2ccco2)CC1 (centres unmarked) [Compound 501]
47 | 100 to 1000 | – | Cc1ccccc1N1CCN(c2ccc(C(=O)NCCN(C)C3CCCC3)cc2NC(=O)c2ccco2)CC1 [Compound 502]
48 | 100 to 1000 | – | Cc1ccccc1N1CCN(c2ccc(C(=O)NCCCN3CCCC3C(N)=O)cc2NC(=O)c2ccco2)CC1 (centres unmarked) [Compound 503]

Row | EC50 [nM] | activation at 5 µM [%] | SMILES
49 | 100 to 1000 | – | Cc1ccccc1N1CCN(c2ccc(C(=O)NCCN(C)C3CCS(=O)(=O)C3)cc2NC(=O)c2ccco2)CC1 (centres unmarked) [Compound 504]
50 | 100 to 1000 | – | CCC(C)NC(=O)NCCCNC(=O)c1ccc(N2CCN(c3ccccc3C)CC2)c(NC(=O)c2ccco2)c1 (centres unmarked) [Compound 511]
51 | < 100 | – | C=CCNC(=O)NCCCNC(=O)c1ccc(N2CCN(c3ccccc3C)CC2)c(NC(=O)c2ccco2)c1 [Compound 512]
52 | 100 to 1000 | – | CCc1ccccc1N1CCN(c2ccc(C(=O)NCCCN3CCCC3=O)cc2NC(=O)c2ccc(C)o2)CC1 [Compound 517]
53 | 1000 to 10000 | – | Cc1ccc(C(=O)Nc2cc(C(=O)NCCCN3CCCC3=O)ccc2N2CCN(c3ccccc3C#N)CC2)o1 [Compound 522]
54 | 100 to 1000 | – | Cc1ccccc1N1CCN(c2ccc(C(=O)NCc3cccc(C(F)(F)F)c3)cc2NC(=O)c2ccco2)CC1 [Compound 527]
55 | 1000 to 10000 | – | Cc1ccccc1N1CCN(c2ccc(C(=O)NCc3cccc(C(F)(F)F)c3)cc2NC(=O)c2coc(C3CC3)n2)CC1 [Compound 528]
56 | 100 to 1000 | – | CCN(C)Cc1cccc(CNC(=O)c2ccc(N3CCN(c4ccccc4C)CC3)c(NC(=O)c3coc(C4CC4)n3)c2)c1 [Compound 537]
57 | 100 to 1000 | – | Cc1ccccc1N1CCN(c2ccc(C(=O)NCc3cccc(CN4CCCC4)c3)cc2NC(=O)c2coc(C3CC3)n2)CC1 [Compound 538]
58 | 1000 to 10000 | – | Cc1ccccc1N1CCN(c2ccc(C(=O)NCCCN3CCCC3=O)cc2NC(=O)C2CC2(F)F)CC1 (centres unmarked) [Compound 540]
59 | 100 to 1000 | – | Cc1ccccc1N1CCN(c2ccc(C(=O)NOC[C@H](O)CO)cc2NC(=O)c2coc(C3CC3)n2)CC1 [Compound 542]
60 | 1000 to 10000 | – | CCN(CC)Cc1cccc(CNC(=O)c2ccc(N3CCN(c4ccccc4C)CC3)c(NC(=O)c3ccc(C)o3)c2)c1 [Compound 543]
61 | 1000 to 10000 | – | Cc1ccc(C(=O)Nc2cc(C(=O)NCc3cccc(CN(C)C)c3)ccc2N2CCN(c3ccccc3C)CC2)o1 [Compound 544]
62 | 1000 to 10000 | – | Cc1ccc(C(=O)Nc2cc(C(=O)NCc3cccc(CN4CCCC4)c3)ccc2N2CCN(c3ccccc3C)CC2)o1 [Compound 546]
63 | 1000 to 10000 | – | CCN(C)Cc1cccc(CNC(=O)c2ccc(N3CCN(c4ccccc4C)CC3)c(NC(=O)c3ccc(C)o3)c2)c1 [Compound 547]
64 | 1000 to 10000 | – | Cc1ccccc1N1CCN(c2ccc(C(=O)NC[C@H](O)[C@@H](O)CN)cc2NC(=O)c2coc(C3CC3)n2)CC1 [Compound 561]
65 | 100 to 1000 | – | COC(C(=O)Nc1cc(C(=O)NCCCN2CCCC2=O)ccc1N1CCN(c2ccccc2C)CC1)c1ccccc1 (centres unmarked) [Compound 562]
